Measured values as given in patent US12037583B2, “Compositions and methods for immunooncology” (Novartis AG, priority 2015, dated 2024).

What was measured:
TRAC = assay: Editing of TRAC by dgRNAs in HEK cells stably expressing Cas9 (NGS); format: cell-based, human; conditions: dgRNA delivered to HEK cells stably expressing Cas9, target TRAC, mean of at least 3 experiments
Excerpt: (§1) FIG. 12: Mean (n≥3) editing of CRISPR systems with dgRNAs as indicated to TRAC in HEK cells (stably expressing Cas9) or primary human CD3+ T cells (delivery of dgRNA:Cas9 RNP by electroporation).

TRAC locus = assay: Genomic editing of the TRAC locus in primary human CD3+ T cells by RNP electroporation (NGS: % indels, % frameshift edits, indel pattern); format: cell-based; conditions: dgRNA/Cas9 RNP by electroporation, target TRAC; for mean FS edit (%): frameshift edits in primary human CD3+ T cells; for mean total % edit: primary human CD3+ T cells, mean of at least 3 experiments;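 as to all read-outs here: total edit is the insertion or deletion frequency at TRAC, and the frameshift value is the share of those indels that shift the coding frame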
Excerpt: as §1
FIG. 33C: Genomic editing of the TRAC locus resulting from human primary T cell electroporation with RNP containing the indicated gRNA targeting the TRAC locus is shown. The frequency of insertions or deletions is indicated (% indels) and the percentage of these edits that result in frameshifting of the coding sequence is shown (% frameshift edits).
Data for each experiment are the average from triplicate PCR products.

For “AAGGUUCAGAUCAGAAGAGG (chemistry not given here; listed as Homo sapiens) [CR000921]”, the mean % edit (TRAC) was 58.3%, the “mean FS edit (%)” value (TRAC locus) was 11.3% and the “mean total % edit” value (TRAC locus) was 12.7%.
With “GCAAUGCAGAGGAAGGAGCG (chemistry not given here; listed as Homo sapiens) [CR000998]” the mean % edit (TRAC) was 4.3%, the “mean FS edit (%)” value (TRAC locus) was 2.2% and the “mean total % edit” value (TRAC locus) was 2.4%.
“UAGGCAGACAGACUUGUCAC (chemistry not given here; listed as Homo sapiens) [CR000963]” was tested, and the mean % edit (TRAC) was 68.4%, the “mean FS edit (%)” value (TRAC locus) was 25.3% and the “mean total % edit” value (TRAC locus) was 32.5%.
“AGCAGCUUUCACCUCCUUGG (chemistry not given here; listed as Homo sapiens) [CR001009]” was tested, and the mean % edit (TRAC) was 65.3%, the “mean FS edit (%)” value (TRAC locus) was 22.8% and the “mean total % edit” value (TRAC locus) was 27.3%.
With “GUAGCAGCUUUCACCUCCUU (chemistry not given here; listed as Homo sapiens) [CR001011]” the mean % edit (TRAC) was 64.8%, the “mean FS edit (%)” value (TRAC locus) was 10.8% and the “mean total % edit” value (TRAC locus) was 13.2%.
With “AGUUGGUGGCAUUGCCGGGG (chemistry not given here; listed as Homo sapiens) [CR001015]” the mean % edit (TRAC) was 35.9%, the “mean FS edit (%)” value (TRAC locus) was 20.4% and the “mean total % edit” value (TRAC locus) was 21.8%.
With “GCAGCAGGGACCUGUGAGCA (chemistry not given here; listed as Homo sapiens) [CR000926]” the mean % edit (TRAC) was 73.0%, the “mean FS edit (%)” value (TRAC locus) was 19.9% and the “mean total % edit” value (TRAC locus) was 22.5%.
For “CAAUGCAGAGGAAGGAGCGA (chemistry not given here; listed as Homo sapiens) [CR000997]”, the mean % edit (TRAC) was 11.6%, the “mean FS edit (%)” value (TRAC locus) was 6.4% and the “mean total % edit” value (TRAC locus) was 6.7%.
With “GCAUUGCCGGGGGGGCACAG (chemistry not given here; listed as Homo sapiens) [CR001014]” the mean % edit (TRAC) was 52.7%, the “mean FS edit (%)” value (TRAC locus) was 24.3% and the “mean total % edit” value (TRAC locus) was 27.3%.
With “AUAUGUGCAGCUCAGGGUCA (chemistry not given here; listed as Homo sapiens) [CR000937]” the mean % edit (TRAC) was 50.9%, the “mean FS edit (%)” value (TRAC locus) was 10.8% and the “mean total % edit” value (TRAC locus) was 15.8%.
“UUCAAAACCUGUCAGUGAUU (chemistry not given here; listed as Homo sapiens) [CR000983]” was tested, and the mean % edit (TRAC) was 59.8%, the “mean FS edit (%)” value (TRAC locus) was 18.2% and the “mean total % edit” value (TRAC locus) was 26.6%.
“GCUGUAUGUGUGAGUUGGUG (chemistry not given here; listed as Homo sapiens) [CR000948]” was tested, and the mean % edit (TRAC) was 84.5%, the “mean FS edit (%)” value (TRAC locus) was 18.4% and the “mean total % edit” value (TRAC locus) was 20.3%.
In the case of “UAUUCUUGUGCUCUCAGAGA (chemistry not given here; listed as Homo sapiens) [CR000952]”, the mean % edit (TRAC) is reported as 57.9%, the “mean FS edit (%)” value (TRAC locus) is reported as 5.6% and the “mean total % edit” value (TRAC locus) is reported as 5.8%.
In the case of “GCUUUCACCUCCUUGGGGGU (chemistry not given here; listed as Homo sapiens) [CR001008]”, the mean % edit (TRAC) is reported as 13.6%, the “mean FS edit (%)” value (TRAC locus) is reported as 4.5% and the “mean total % edit” value (TRAC locus) is reported as 5.1%.
“AAAGCUGCCCUUACCUGGGC (chemistry not given here; listed as Homo sapiens) [CR000976]” was tested, and the mean % edit (TRAC) was 2.8%, the “mean FS edit (%)” value (TRAC locus) was 1.7% and the “mean total % edit” value (TRAC locus) was 1.8%.
In the case of “CUGGGGAAGAAGGUGUCUUC (chemistry not given here; listed as Homo sapiens) [CR000973]”, the mean % edit (TRAC) is reported as 39.7%, the “mean FS edit (%)” value (TRAC locus) is reported as 12.4% and the “mean total % edit” value (TRAC locus) is reported as 16.2%.
With “UUGCCGGGGGGGCACAGAGG (chemistry not given here; listed as Homo sapiens) [CR001013]” the mean % edit (TRAC) was 29.7%, the “mean FS edit (%)” value (TRAC locus) was 17.6% and the “mean total % edit” value (TRAC locus) was 19.6%.
In the case of “AGGAAGGAGCGAGGGAGCAC (chemistry not given here; listed as Homo sapiens) [CR000996]”, the mean % edit (TRAC) is reported as 52.3%, the “mean FS edit (%)” value (TRAC locus) is reported as 8.6% and the “mean total % edit” value (TRAC locus) is reported as 11.1%.
In the case of “GGAAACACACCUCUUGUCUU (chemistry not given here; listed as Homo sapiens) [CR000953]”, the mean % edit (TRAC) is reported as 66.0%, the “mean FS edit (%)” value (TRAC locus) is reported as 14.4% and the “mean total % edit” value (TRAC locus) is reported as 17.7%.
For “AACAAAUGUGUCACAAAGUA (chemistry not given here; listed as Homo sapiens) [CR000966]”, the mean % edit (TRAC) was 65.2%, the “mean FS edit (%)” value (TRAC locus) was 21.0% and the “mean total % edit” value (TRAC locus) was 22.0%.
In the case of “CACACCUCUUGUCUUUGGAA (chemistry not given here; listed as Homo sapiens) [CR000954]”, the mean % edit (TRAC) is reported as 22.3%, the “mean FS edit (%)” value (TRAC locus) is reported as 2.6% and the “mean total % edit” value (TRAC locus) is reported as 2.7%.
“UGGUGUCAUAUGUGCAGCUC (chemistry not given here; listed as Homo sapiens) [CR000939]” was tested, and the mean % edit (TRAC) was 27.7%, the “mean FS edit (%)” value (TRAC locus) was 12.1% and the “mean total % edit” value (TRAC locus) was 13.5%.
With “GAGUUCCCUCUGUUUGGAGA (chemistry not given here; listed as Homo sapiens) [CR001004]” the mean % edit (TRAC) was 47.2%, the “mean FS edit (%)” value (TRAC locus) was 6.4% and the “mean total % edit” value (TRAC locus) was 6.7%.
“ACCCGGCCACUUUCAGGAGG (chemistry not given here; listed as Homo sapiens) [CR000989]” was tested, and the mean % edit (TRAC) was 54.5%, the “mean FS edit (%)” value (TRAC locus) was 18.2% and the “mean total % edit” value (TRAC locus) was 28.2%.
In the case of “GAGAAUCAAAAUCGGUGAAU (chemistry not given here; listed as Homo sapiens) [CR000964]”, the mean % edit (TRAC) is reported as 51.2%, the “mean FS edit (%)” value (TRAC locus) is reported as 23.5% and the “mean total % edit” value (TRAC locus) is reported as 27.0%.
With “UGCUCAUGACGCUGCGGCUG (chemistry not given here; listed as Homo sapiens) [CR000994]” the mean % edit (TRAC) was 46.9%, the “mean FS edit (%)” value (TRAC locus) was 10.8% and the “mean total % edit” value (TRAC locus) was 21.5%.
“AGGCUUCUCACCCUGCAGCA (chemistry not given here; listed as Homo sapiens) [CR000923]” was tested, and the mean % edit (TRAC) was 67.4%, the “mean FS edit (%)” value (TRAC locus) was 32.7% and the “mean total % edit” value (TRAC locus) was 37.3%.
With “UGCUCACAGGUCCCUGCUGC (chemistry not given here; listed as Homo sapiens) [CR000925]” the mean % edit (TRAC) was 56.9%, the “mean FS edit (%)” value (TRAC locus) was 12.3% and the “mean total % edit” value (TRAC locus) was 19.1%.
“CUACCACCUCUGUGCCCCCC (chemistry not given here; listed as Homo sapiens) [CR001012]” was tested, and the mean % edit (TRAC) was 64.5%, the “mean FS edit (%)” value (TRAC locus) was 22.9% and the “mean total % edit” value (TRAC locus) was 31.5%.
For “UAAACCCGGCCACUUUCAGG (chemistry not given here; listed as Homo sapiens) [CR000990]”, the mean % edit (TRAC) was 63.7%, the “mean FS edit (%)” value (TRAC locus) was 25.3% and the “mean total % edit” value (TRAC locus) was 36.1%.
For “UAAAUAAUAAUCACUCUCAC (chemistry not given here; listed as Homo sapiens) [CR000940]”, the mean % edit (TRAC) was 55.0%, the “mean FS edit (%)” value (TRAC locus) was 14.4% and the “mean total % edit” value (TRAC locus) was 22.1%.
With “AACGAGAAUCAUCUGCCUGC (chemistry not given here; listed as Homo sapiens) [CR000945]” the mean % edit (TRAC) was 32.3%, the “mean FS edit (%)” value (TRAC locus) was 2.2% and the “mean total % edit” value (TRAC locus) was 2.3%.
With “GUAGGAGAGUUCCCUCUGUU (chemistry not given here; listed as Homo sapiens) [CR001006]” the mean % edit (TRAC) was 56.8%, the “mean FS edit (%)” value (TRAC locus) was 10.4% and the “mean total % edit” value (TRAC locus) was 13.6%.
With “CUUCAAGAGCAACAGUGCUG (chemistry not given here; listed as Homo sapiens) [CR000969]” the mean % edit (TRAC) was 34.0%, the “mean FS edit (%)” value (TRAC locus) was 20.9% and the “mean total % edit” value (TRAC locus) was 24.8%.
In the case of “UAGCAGCUUUCACCUCCUUG (chemistry not given here; listed as Homo sapiens) [CR001010]”, the mean % edit (TRAC) is reported as 48.3%, the “mean FS edit (%)” value (TRAC locus) is reported as 18.6% and the “mean total % edit” value (TRAC locus) is reported as 21.2%.
“UCCUCCUCCUGAAAGUGGCC (chemistry not given here; listed as Homo sapiens) [CR000988]” was tested, and the mean % edit (TRAC) was 41.9%, the “mean FS edit (%)” value (TRAC locus) was 17.4% and the “mean total % edit” value (TRAC locus) was 22.3%.
In the case of “CACCAAAGCUGCCCUUACCU (chemistry not given here; listed as Homo sapiens) [CR000977]”, the mean % edit (TRAC) is reported as 80.6%, the “mean FS edit (%)” value (TRAC locus) is reported as 35.7% and the “mean total % edit” value (TRAC locus) is reported as 44.2%.
“ACAAGUGCCCACAGGAAGCC (chemistry not given here; listed as Homo sapiens) [CR000930]” was tested, and the mean % edit (TRAC) was 12.2%, the “mean FS edit (%)” value (TRAC locus) was 7.1% and the “mean total % edit” value (TRAC locus) was 9.9%.
